Test results from patent publication US12357601B2, “Composition for inhibiting growth of bacterium having menaquinone synthesis pathway through futalosine or futalosine derivative” (NOSTER INC., priority 2017, dated 2025).
Values after ≈ are worked out from the molar mass of the structure shown.

Legend:
Format in all cases: cell-based
[1] = tested on: Helicobacter pylori TK1029 strain; experiment: Proliferation inhibitory effect (in vitro) by ED50 measurement, viable count; conditions: BHI 2% FCS, viable count; for ED50 value, 15 hr later: 15 hr shaking culture; for ED50 value, 25 hr later: 25 hr shaking culture
Description: Helicobacter pylori TK1029 strain (clinical isolate) was cultured in Brucella broth containing 10% FCS and 1×10^6 CFU of bacteria were respectively added to 3 mL of Brain-Heart Infusion Broth (BHI) media (previously added with free fatty acid (stearic acid, oleic acid, linoleic acid, ricinoleic acid, HYA) at 0, 0.5, 5, 50, 500 μg/mL) containing 2% FCS in a 6-well plate. Shaking culture was performed under conditions of temperature 37° C., humidity 100%, microaerobic (5% 02, 10% CO2, 85% N2), the culture medium (0.1 mL) from each well was applied to NISSUI plate, Helicobacter agar medium 15 hr and 25 hr later, and the number of colonies formed after microaerobic culture for 3 days was counted.

[2] = tested on: Helicobacter pylori SS1 strain, TN2GF4 strain, ATCC43579 strain, NCTC11637 strain, TY281 strain, TY1345 strain; experiment: Proliferation inhibitory effect (in vitro), static culture 3 days, colony count; conditions: menaquinone (MK-4) 100 μg/mL added with fatty acid
Description: Helicobacter pylori SS1 strain, TN2GF4 strain, ATCC43579 strain, NCTC11637 strain, TY281 strain, TY1345 strain were each inoculated to a 6-well plate containing 3 mL of a liquid medium (Brucella broth added with 10% FCS), and fatty acid (200 μM or 1000 μM) and menaquinone (MK-4) 100 μg/mL were added. After static culture for 3 days at temperature 37° C., microaerobic conditions (5% 02, 10% 002, 85% N2), the culture medium was applied on a Helicobacter agar plate, cultured for 3 days and the resulting colonies were counted (FIG. 1-1 A: SS1 strain, FIG. 1-2 B: TN2GF4 strain, FIG. 1-3 C: ATCC43579 strain, FIG. 1-4 D: NCTC11637 strain, FIG. 1-5 E: TY281 strain, FIG. 1-6 F: TY1345 strain. Item C: control (no addition), Item 1: HYA addition, Item 2: HYA and menaquinone addition, Item 3: linoleic acid addition, Item 4: linoleic acid and menaquinone addition).

[3] = tested on: Helicobacter pylori SS1 strain, TN2GF4 strain, TK1029 strain, RC-1 strain; experiment: Proliferation inhibitory effect (in vitro) of low concentration fatty acid, shaking culture 24 hr, colony count; conditions: menaquinone (MK-4) 100 μg/mL added with fatty acid 20 μM
Description: Helicobacter pylori SS1 strain, TN2GF4 strain, TK1029 strain, RC-1 strain were each inoculated to a 6-well plate containing 2 mL of a liquid medium (BHI added with 5% FCS), and fatty acid (20 μM) and menaquinone (MK-4) 100 μg/mL were added. After shaking culture for 24 hr at temperature 37° C., microaerobic conditions (5% 02, 10% CO2, 85% N2), the culture medium was applied on a Helicobacter agar plate, cultured for 3 days and the resulting colonies were counted (FIG. 2-1 A: SS1 strain, FIG. 2-2 B: TN2GF4 strain, FIG. 2-3 C: TK1029 strain, FIG. 2-4 D: RC-1 strain. Item 1: control (menaquinone no addition), Item 2: control (menaquinone 100 μg/mL addition), Item 3: HYA 20 μM (menaquinone no addition), Item 4: HYA 20 μM (menaquinone 100 μg/mL addition), Item 5: linoleic acid 20 μM (menaquinone no addition), Item 6: linoleic acid 20 μM (menaquinone 100 μg/mL addition). *, P<0.0001 vs. Control (ordinary one-way ANOVA)).

[4] = tested on: Campylobacter jejuni ATCC33560 strain; experiment: Proliferation inhibitory effect (in vitro) on Campylobacter jejuni, absorbance and colony count; conditions: 100, 200, 400 μM, 24 hr; concentration dependent; strong compared to linoleic acid
[5] = tested on: Campylobacter coli ATCC33559 strain; experiment: Proliferation inhibitory effect (in vitro) on Campylobacter coli, absorbance and colony count; conditions: 100, 200, 400 μM, 24 hr; concentration dependent; strong compared to linoleic acid

Compound	ED50 value, 15 hr later [1] [µg/mL]	ED50 value, 25 hr later [1] [µg/mL]	also measured
CCCCC/C=C\C/C=C\CCCCCCCC(=O)O [linoleic acid]	50 (≈ 178 µM)	50 (≈ 178 µM)	–
CC(C)=CCC/C(C)=C/CC/C(C)=C/CC/C(C)=C/CC1=C(C)C(=O)c2ccccc2C1=O [menaquinone (MK-4), menaquinone]	–	–	effect of menaquinone addition on inhibition of proliferation by fatty acid [2]: mitigated inhibition of proliferation; effect of menaquinone addition on inhibition of proliferation by fatty acid [3]: mitigated inhibition of proliferation
CCCCCCCC/C=C\CCCCCCCC(=O)O [oleic acid]	50 (≈ 177 µM)	>50	–
CCCCCC[C@@H](O)C/C=C\CCCCCCCC(=O)O [ricinoleic acid]	5 (≈ 16.8 µM)	0.5 (≈ 1.68 µM)	–
CCCCCCCCCCCCCCCCCC(=O)O [stearic acid]	500 (≈ 1760 µM)	>500	–
CC/C=C\C/C=C\CC(O)CCCCCCCCC(=O)O (stereo not drawn) [αHYA, 10-hydroxy-cis-12,cis-15-octadecadienoic acid]	–	–	proliferation of Campylobacter jejuni ATCC33560 strain [4]: inhibited proliferation; proliferation of Campylobacter coli ATCC33559 strain [5]: inhibited proliferation
CCCCC/C=C\CC(O)CC/C=C\CCCCC(=O)O (stereo not drawn) [γHYA, 10-hydroxy-cis-6,cis-12-octadecadienoic acid]	–	–	proliferation of Campylobacter jejuni ATCC33560 strain [4]: inhibited proliferation; proliferation of Campylobacter coli ATCC33559 strain [5]: inhibited proliferation
